# “And” between values parts separate entries of the source, which are not always exact repeats. Equal values may be shown once. Read-outs that look alike come from different tables or passages of the source.
# What was measured:
# WT RSV L-P [1] = target: T1, WT RSV L-P (Human respiratory syncytial virus A, UniProt P28887); assay type: biochemical
# T1 construct: made in house; host or cells: insect cells
# Method: The recombinant RSV polymerase complex was produced by co-expressing the L and P proteins of RSV in insect cells as previously described. Unless otherwise specified, RNA polymerase reaction samples consisted of 0.2 μM of an oligonucleotide template sequence derived from the RSV leader promoter (5'-[…]-3') and 0.2 μM recombinant RSVL-P polymerase together with 200 μM 5'-pACGC primer, mixed in a buffer containing 20 mM Tris pH 7.5, 10 mM KCl, 2 mM dithiothreitol, 0.5% triton X-100, 10% DMSO, 0.2 U/μL RNasin (Ambion), and 6 mM MgCl2. Reactions were started by adding specific NTPs to a final volume of 10 μL and incubated at 30°C. The radioisotope tracer used for this assay was α^33P-GTP. To measure the incorporation of GTP analogs, the oligonucleotide template sequence was modified to 5'-[…]-3'. Reactions were stopped after 30 minutes by adding an equal volume of gel loading buffer (Ambion). Samples were denatured at 95°C for 5 minutes, and run for 1.5 hours at 80 W in a 22.5% polyacrylamide urea sequencing gel. After the gel was dried, the product of migration was exposed to a phosphor-screen and scanned on a Typhoon phosphorimager (GE Healthcare) and quantified using ImageQuant (GE Healthcare). For each enzyme, the level of NTP analog discrimination was calculated as Km NTP analog / Km NTP, and the corresponding resistance as Mutantdiscrimination / WTdiscrimination.
# [2] = target: T2, QUAD RSV L-P (M628L, A789V, L795I, I796V) (Human respiratory syncytial virus A, UniProt P28887, A789V/I796V/L795I/M628L); test: Single nucleotide incorporation (primer extension) by recombinant RSV L-P, QUAD mutant; assay type: biochemical; details: for Discrimination (Km NTP analog / Km NTP) / Km: QUAD RSV L-P; for Km: single nucleotide incorporation; for Resistance (QUADdiscrimination / WTdiscrimination): QUAD vs WT RSV L-P
# [3] = test system: WT RSV L polymerase-dependent luciferase activity; test: cells; assay type: cell-based, Respiratory syncytial virus (RSV); details: human respiratory syncytial virus, HEp-2 cells, minigenome luciferase
# [4] = test system: QUAD RSV L polymerase-dependent luciferase activity; test: cells; assay type: cell-based, Respiratory syncytial virus (RSV), HEp-2 cells
# Y1631H RSV polymerase = Y1631H RSV polymerase (Human respiratory syncytial virus A, UniProt P28887, Y1631H); test: Single nucleotide incorporation, Y1631H mutant; assay type: biochemical
# WT RSV L-P [5] = target: T1, WT RSV L-P; details: cited from earlier work
# [6] = target: T2, QUAD RSV L-P (M628L, A789V, L795I, I796V); details: cited from earlier work
# [7] = target: RSV polymerase containing the Y1631H mutation in the L subunit (Human respiratory syncytial virus A, UniProt P28887, Y1631H); test: Biotin-primer extension RdRp assay, Y1631H; assay type: biochemical; details: Y1631H IC50 vs WT IC50
# WT RSV L-P [8] = target: T1, WT RSV L-P; assay type: biochemical; details: 10 μM
# RSV L-P dimer = target: T3, RSV L-P dimer (Human respiratory syncytial virus A, UniProt P28887); test: Ni-NTA pull-down assay of RSV L-P; assay type: binding; details: 10 μM, 30 minutes pre-incubation
# T3 construct: made in house; host or cells: insect cells
# Method: The enzyme-inhibitor complex was pre-incubated for 30 minutes, after which nickel beads were used to pull down the histidine-tagged P subunit. The bound protein was washed on the beads and visualized by SDS PAGE. When the experiment was performed in the presence of DMSO, the untagged L subunit remained noncovalently bound to P (Fig 6A, lane 1).
# Beads were collected by centrifugation, and washed in 500 μL buffer containing 20mM Tris pH 7.5, 10 mM KCl, 6 mM MgCl2, 0.01% Triton X-100, and 2 mM DTT. Beads were resuspended in 20 μL loading buffer (4% SDS, 20% glycerol, 0.12M Tris pH 7, and 10% BME) and heated for 5 minutes at 95°C. Samples were run on a 4% to 12% SDS PAGE gel alongside PageRuler prestained marker (Invitrogen) and stained using SimplyBlue SafeStain (Thermo Fisher Scientific).
# [9] = test system: Nc1ccn([C@@H]2O[C@](CCl)(COP(=O)(O)OP(=O)(O)OP(=O)(O)O)[C@@H](O)[C@H]2O)c(=O)n1; test: purified protein, by the assay type; details: pH 7.5
# [10] = test system: [N-]=[N+]=N[C@]1(COP(=O)(O)OP(=O)(O)OP(=O)(O)O)O[C@@H](n2ccc(N)nc2=O)[C@H](F)[C@@H]1O; test: purified protein, by the assay type; details: pH 7.5
# [11] = WT RSV L-P, single nucleotide incorporation
compound,measurement,setting,value
2'F-4'ClCH2-ATP,Chain termination effect,WT RSV L-P [1],immediate chain terminator
same,Discrimination (Km NTP analog / Km NTP),WT RSV L-P [1],12 fold and 12±2.5 fold
same,Km,WT RSV L-P [1],27 ± 7.8 µM
same,Discrimination (Km NTP analog / Km NTP),[2],12.9±1.1 fold
same,Km,[2],23.6 ± 5.8 µM
same,Resistance (QUADdiscrimination / WTdiscrimination),[2],1.1 fold
2'F-4'ClCH2-GTP,Chain termination effect,WT RSV L-P [1],did not completely block RNA synthesis
same,Discrimination (Km NTP analog / Km NTP),WT RSV L-P [1],5.6±0.6 fold
same,Km,WT RSV L-P [1],5.8 ± 1.4 µM
same,Discrimination (Km NTP analog / Km NTP),[2],94.4 fold and 94.4±17.7 fold
same,Km,[2],31.1 ± 15 µM
same,Resistance (QUADdiscrimination / WTdiscrimination),[2],17 fold
C[C@@H](F)[C@]1(COP(=O)(O)OP(=O)(O)OP(=O)(O)O)O[C@@H](n2ccc(N)nc2=O)[C@H](F)[C@@H]1O [1-fluoroethyl (FCH3CH2)],Resistance (QUADdiscrimination / WTdiscrimination),[2],> 3 fold
Nc1ccn([C@@H]2O[C@@](CO)(CBr)[C@@H](O)[C@H]2F)c(=O)n1 [2'F-4'BrCH2-cytidine],EC50,[3],1600 ± 600 nM
same,Loss in inhibition potency in the presence of the QUAD mutations,[4]; QUAD vs WT minigenome,47 fold
[N-]=[N+]=N[C@]1(COP(=O)(O)OP(=O)(O)OP(=O)(O)O)O[C@@H](n2ccc(N)nc2=O)[C@H](F)[C@@H]1O [2'F-4'N3-CTP],Resistance (QUADdiscrimination / WTdiscrimination),[2]; listed as azido (N3-),no resistance
[N-]=[N+]=N[C@]1(CO)O[C@@H](n2ccc(N)nc2=O)[C@H](F)[C@@H]1O [2'F-4'N3-cytidine],EC50,[3],1300 ± 300 nM
same,EC50,"[4]; human respiratory syncytial virus, QUAD L, HEp-2 cells, minigenome luciferase",2200 ± 500 nM
"Nc1ccn([C@@H]2O[C@](CCl)(COP(=O)(O)OP(=O)(O)OP(=O)(O)O)[C@@H](O)[C@H]2F)c(=O)n1 [ALS-8112-TP, 2'F-4'ClCH2-cytidine triphosphate]",Resistance (QUADdiscrimination / WTdiscrimination),[2]; listed as chloromethyl (ClCH2),> 3 fold
same,Discrimination of the CTP analog,Y1631H RSV polymerase,18 fold
same,Discrimination,WT RSV L-P [5]; WT RSV polymerase,13 fold
same,Resistance (increase in discrimination by QUAD),[6]; QUAD vs WT RSV L-P,4.6 fold
O=C(NC1CC1)c1cc2c(s1)-c1ccccc1N(C(=O)c1ccc(NC(=O)c3cccnc3N3CCC4(CC3)COC4)cc1)CC2 [AZ-27],Resistance compared to the WT enzyme,[7],940 fold
same,Inhibition of +1 and +2 RNA products,WT RSV L-P [8]; 30-minute reaction,no inhibition
same,Inhibition of +4–7 RNA products,"WT RSV L-P [8]; 30-minute reaction, position +4 and beyond",75–85%
same,Inhibition behavior with respect to NTPs,WT RSV L-P [8]; ATP+CTP from 1 to 100 μM,non-competitive inhibition behavior
same,Effect on L binding to P (L-P complex stability),RSV L-P dimer,did not inhibit the ability of L to bind to P
Nc1ccn([C@@H]2O[C@](CBr)(COP(=O)(O)OP(=O)(O)OP(=O)(O)O)[C@@H](O)[C@H]2F)c(=O)n1 [bromomethyl (BrCH2)],Resistance (QUADdiscrimination / WTdiscrimination),[2],> 3 fold
Nc1ccn([C@@H]2O[C@@](COP(=O)(O)OP(=O)(O)OP(=O)(O)O)(C3CC3)[C@@H](O)[C@H]2F)c(=O)n1 [cyclopropyl (CH2CH2CH2)],Resistance (QUADdiscrimination / WTdiscrimination),[2],no resistance
Nc1ccn([C@@H]2O[C@](CF)(COP(=O)(O)OP(=O)(O)OP(=O)(O)O)[C@@H](O)[C@H]2F)c(=O)n1 [fluoromethyl (FCH2)],Resistance (QUADdiscrimination / WTdiscrimination),[2],> 3 fold
CSC[C@]1(COP(=O)(O)OP(=O)(O)OP(=O)(O)O)O[C@@H](n2ccc(N)nc2=O)[C@H](F)[C@@H]1O [methyl-thio-methyl (CH3SCH2)],Resistance (QUADdiscrimination / WTdiscrimination),[2],no resistance
(Human respiratory syncytial virus A2),Km,[9],19.7 ± 6.7 µM
same,Km,[10],0.62 ± 0.042 µM
ATP [reference compound],Km,WT RSV L-P [1]; [11],2.2 ± 0.2 µM
same,Km,[2],1.8 ± 0.3 µM
CTP [reference compound],Km,Y1631H RSV polymerase,0.042 ± 0.009 µM
same,Km,"WT RSV L-P [5]; WT RSV L-P, n = 4, read-out: Km CTP",0.056 ± 0.01 µM
same,Km,"[6]; QUAD RSV L-P, n = 2, read-out: Km CTP",0.028 ± 0.005 µM
GTP [reference compound],Km,WT RSV L-P [1]; [11],1.1 ± 0.4 µM
same,Km,[2],0.3 ± 0.1 µM

# Source: PMC4862670, “Biochemical Effect of Resistance Mutations against Synergistic Inhibitors of RSV RNA Polymerase” (PLoS ONE, 2016)
